Where a name gives a salt, the structure may show the parent alone.
Biological target: T1, human recombinant ENPP1 (Homo sapiens, UniProt P22413)
T1 construct: purchased R & D systems
T1 sequence (P22413 1-925): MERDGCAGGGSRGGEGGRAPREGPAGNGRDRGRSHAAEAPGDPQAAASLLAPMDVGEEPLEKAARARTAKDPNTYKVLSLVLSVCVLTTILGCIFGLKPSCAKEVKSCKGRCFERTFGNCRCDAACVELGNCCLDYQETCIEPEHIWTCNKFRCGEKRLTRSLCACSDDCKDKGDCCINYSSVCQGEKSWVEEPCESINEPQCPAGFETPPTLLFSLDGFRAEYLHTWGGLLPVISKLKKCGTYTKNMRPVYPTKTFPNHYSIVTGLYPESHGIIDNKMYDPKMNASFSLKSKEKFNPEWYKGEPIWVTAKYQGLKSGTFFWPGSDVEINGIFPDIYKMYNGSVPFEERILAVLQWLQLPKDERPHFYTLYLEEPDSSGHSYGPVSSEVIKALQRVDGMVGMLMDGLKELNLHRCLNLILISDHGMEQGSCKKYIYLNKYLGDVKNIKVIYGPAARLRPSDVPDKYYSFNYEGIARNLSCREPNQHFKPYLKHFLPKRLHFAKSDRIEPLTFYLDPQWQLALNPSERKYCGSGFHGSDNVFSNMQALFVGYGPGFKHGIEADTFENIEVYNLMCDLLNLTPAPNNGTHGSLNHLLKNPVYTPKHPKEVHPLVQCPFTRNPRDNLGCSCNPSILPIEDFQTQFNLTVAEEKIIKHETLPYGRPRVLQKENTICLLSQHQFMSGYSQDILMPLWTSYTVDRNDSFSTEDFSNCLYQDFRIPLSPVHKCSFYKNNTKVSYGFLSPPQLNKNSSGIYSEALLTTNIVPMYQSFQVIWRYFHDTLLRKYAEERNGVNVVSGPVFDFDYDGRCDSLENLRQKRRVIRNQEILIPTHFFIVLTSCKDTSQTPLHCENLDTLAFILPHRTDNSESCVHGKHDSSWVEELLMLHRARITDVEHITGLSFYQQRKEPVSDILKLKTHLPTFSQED
Assay: ENPP1 enzyme assay with cGAMP substrate (AMP-Glo luminescence)
Assay type: biochemical
Details: human recombinant ENPP1 3 ng/reaction, cGAMP 5 μM, 37° C. 90 minutes, read-out: Enzymatic activity (ENPP1 IC50)
Experimental: ENPP1 hydrolyzes nucleotides or nucleotide derivatives to produce nucleoside -5′-monophosphate and pyrophosphate. in addition, ENPP1 hydrolyzes 2′,3′-cGAMP to produce 5′-adenosine monophosphate (AMP) and 5′-guanosine monophosphate (GMP). AMP produced from the reaction is measured using the AMP-Glo® kit (Promega). The AMP-Glo® kit contains two reagents. The first reagent terminates the AMP-producing enzymatic reaction, removes ATP and converts the produced AMP into ADP. The second reagent converts ADP to ATP which is used to generate luminescence in the luciferase reaction. The amount of luminescence measured is proportional to the amount of AMP produced by ENPP1.
The final reaction mixture contains 50 mM Tris (pH 8.5) buffer, 250 mM NaCl, 0.5 mM. CaCl2, 1 μM ZnCl2, 5% glycerol and 1% DMSO. […] The reaction was initiated by addition of cGAMP (at a final concentration of 5 μM) and reacted at 37° C. for 90 minutes. At the end of the reaction, 10 μl of the AMP-Glo first reagent was added to stop the reaction and the result was stored at room temperature for […]. After storage, 20 μl of an AMP detection solution (a mixture of AMP-Glo II reagent and Kinase-Gio at a ratio of 1:100) was added and stored at room. temperature for 1 hour. Luminescence signals were measured using a Victor® plate reader (Perkin Elmer). The maximal activity control (containing enzymes and substrates only in the presence of 1% DMSO; MAX) and the minimal activity control (containing substrates and 1% DMSO; MIN) were evaluated simultaneously. In each experiment, serially diluted reference ENPP1 inhibitors were tested together. IC50, indicating % residual activity versus compound concentration was determined by fitting inhibition curves using the 3-parameter analysis of GraphPad Prism® software. Serially diluted samples of one compound were tested two or more times and an average IC50 of each compound was calculated.

Row | Compound | IC50
1 | O=c1[nH]nc(-c2ccc3c(c2)CCNC3)c2ccccc12 [Compound No. 55, 4-(1,2,3,4-tetrahydroisoquinolin-6-yl)phthalazin-1(2H)-one hydrochloride] | < 1 µM
2 | Cn1nc(-c2cccc(CNS(=O)(=O)NC(=O)OC(C)(C)C)c2)c2ccccc2c1=O [Compound No. 64, tert-butyl N-(3-(3-methyl-4-oxo-3,4-dihydrophthalazin-1-yl)benzyl)sulfamoyl carbamate] | > 10 µM
3 | Cn1nc(-c2ccc(CNS(=O)(=O)NC(=O)OC(C)(C)C)cc2)c2ccccc2c1=O [Compound No. 66, tert-butyl (N-(4-(3-methyl-4-oxo-3,4-dihydrophthalazin-1-yl)benzyl)sulfamoyl)carbamate] | > 10 µM
4 | CCn1nc(-c2ccc(CNS(=O)(=O)NC(=O)OC(C)(C)C)cc2)c2ccccc2c1=O [Compound No. 67, tert-butyl (N-(4-(3-ethyl-4-oxo-3,4-dihydrophthalazin-1-yl)benzyl)sulfamoyl)carbamate] | > 10 µM
5 | CC(C)(C)OC(=O)NS(=O)(=O)NCc1ccc(-c2nn(-c3ccccc3)c(=O)c3ccccc23)cc1 [Compound No. 69, tert-butyl (N-(4-(4-oxo-3-phenyl-3,4-dihydrophthalazin-1-yl)benzyl)sulfamoyl)carbamate] | > 10 µM
6 | CC(C)(C)OC(=O)NS(=O)(=O)NCc1ccc(-c2nn(Cc3ccccc3)c(=O)c3ccccc23)cc1 [Compound No. 70] | > 10 µM
7 | CC(C)(C)OC(=O)NS(=O)(=O)NCc1ccc(-c2nn(Cc3ccc(F)cc3)c(=O)c3ccccc23)cc1 [Compound No. 71, tert-butyl (N-(4-(3-(4-fluorobenzyl)-4-oxo-3,4-dihydrophthalazin-1-yl)benzyl)sulfamoyl)carbamate] | > 10 µM
8 | COc1ccc2c(=O)[nH]nc(-c3ccc(CNS(=O)(=O)NC(=O)OC(C)(C)C)cc3)c2c1 [Compound No. 72] | > 10 µM
9 | COc1ccc2c(=O)n(C)nc(-c3ccc(CNS(=O)(=O)NC(=O)OC(C)(C)C)cc3)c2c1 [Compound No. 73, tert-butyl N-(4-(7-methoxy-3-methyl-4-oxo-3,4-dihydrophthalazin-1-yl)benzyl)sulfamoyl carbamate] | > 10 µM
10 | CC(C)(C)OC(=O)NS(=O)(=O)NCc1ccc(-c2n[nH]c(=O)c3ccccc23)cc1C(F)(F)F [Compound No. 81, tert-butyl N-(4-(4-oxo-3,4-dihydrophthalazin-1-yl)-2-(trifluoromethyl)benzyl)sulfamoyl carbamate] | > 10 µM
11 | CC(C)(C)OC(=O)NS(=O)(=O)N1CCc2cc(-c3n[nH]c(=O)c4ccccc34)ccc2C1 [Compound No. 83, tert-butyl ((6-(4-oxo-3,4-dihydrophthalazin-1-yl)-3,4-dihydroisoquinolin-2(1H)-yl)sulfonyl)carbamate] | > 10 µM
12 | Cn1nc(-c2ccc3c(c2)CCN(S(=O)(=O)NC(=O)OC(C)(C)C)C3)c2ccccc2c1=O [Compound No. 84, tert-butyl ((6-(3-methyl-4-oxo-3,4-dihydrophthalazin-1-yl)-3,4-dihydroisoquinolin-2(1H)-yl)sulfonyl)carbamate] | > 10 µM
13 | COc1cc2c(-c3ccc4c(c3)CCN(S(=O)(=O)NC(=O)OC(C)(C)C)C4)n[nH]c(=O)c2cc1OC [Compound No. 85, tert-butyl ((6-(6,7-dimethoxy-4-oxo-3,4-dihydrophthalazin-1-yl)-3,4-dihydroisoquinolin-2(1H)-yl)sulfonyl)carbamate] | > 10 µM

More lines, now with the values ahead:

Row | IC50 | Compound
14 | < 1 µM | COc1ccc2c(-c3ccc(CN)cc3)n[nH]c(=O)c2c1 [Compound No. 47, 4-(4-(aminomethyl)-phenyl)-7-methoxyphthalazin-1(2H)-one hydrochloride]
15 | < 1 µM | COc1cc2c(-c3ccc(CN)cc3)n[nH]c(=O)c2cc1OC [Compound No. 48, 4-(4-(aminomethyl)phenyl)-6,7-dimethoxyphthalazin-1(2H)-one hydrochloride]
16 | < 1 µM | COc1cc2c(-c3ccc(CN)cc3)nn(C)c(=O)c2cc1OC [Compound No. 49, 4-(4-(aminomethyl)phenyl)-6,7-dimethoxy-2-methylphthalazin-1(2H)-one hydrochloride]
17 | < 1 µM | C[C@@H](N)c1ccc(-c2n[nH]c(=O)c3ccccc23)cc1 [Compound No. 51, (R)-4-(4-(1-aminoethyl)phenyl)phthalazin-1(2H)-one hydrochloride]
18 | 1 to 10 µM | CC(C)(N)c1ccc(-c2n[nH]c(=O)c3ccccc23)cc1 [Compound No. 52, 4-(4-(2-aminopropan-2-yl)phenyl)phthalazin-1(2H)-one hydrochloride]
19 | < 1 µM | NCc1ccc(-c2n[nH]c(=O)c3ccccc23)cc1C(F)(F)F [Compound No. 53, 4-(4-(aminomethyl)-3-(trifluoromethyl)phenyl)phthalazin-1(2H)-one hydrochloride]
20 | 1 to 10 µM | Cn1nc(-c2ccc3c(c2)CCNC3)c2ccccc2c1=O [Compound No. 56, 2-methyl-4-(1,2,3,4-tetrahydroisoquinolin-6-yl)phthalazin-1(2H)-one hydrochloride]
21 | 1 to 10 µM | COc1cc2c(-c3ccc4c(c3)CCNC4)n[nH]c(=O)c2cc1OC [Compound No. 57, 6,7-dimethoxy-4-(1,2,3,4-tetrahydroisoquinolin-6-yl)phthalazin-1(2H)-one hydrochloride]
22 | 1 to 10 µM | COc1cc2c(-c3ccc4c(c3)CCNC4)nn(C)c(=O)c2cc1OC [Compound No. 58, 6,7-dimethoxy-2-methyl-4-(1,2,3,4-tetrahydroisoquinolin-6-yl)phthalazin-1(2H)-one hydrochloride]
23 | > 10 µM | COc1cc2c(-c3ccc4c(c3)CNCC4)n[nH]c(=O)c2cc1OC [Compound No. 59, 6,7-dimethoxy-4-(1,2,3,4-tetrahydroisoquinolin-7-yl) phthalazin-1(2H)-one]
24 | > 10 µM | CC(C)(C)OC(=O)NS(=O)(=O)Nc1cccc(-c2n[nH]c(=O)c3ccccc23)c1 [Compound No. 60, tert-butyl (N-(3-(4-oxo-3,4-dihydrophthalazin-1-yl)phenyl)sulfamoyl)carbamate]
25 | > 10 µM | Cn1nc(-c2cccc(NS(=O)(=O)NC(=O)OC(C)(C)C)c2)c2ccccc2c1=O [Compound No. 61, tert-butyl (N-(3-(3-methyl-4-oxo-3,4-dihydrophthalazin-1-yl)phenyl)sulfamoyl)carbamate]
26 | > 10 µM | CC(C)(C)OC(=O)NS(=O)(=O)Nc1cccc(-c2nn(Cc3ccccc3)c(=O)c3ccccc23)c1 [Compound No. 62, tert-butyl (N-(3-(3-benzyl-4-oxo-3,4-dihydrophthalazin-1-yl)phenyl)sulfamoyl)carbamate]
27 | 1 to 10 µM | COc1cc2c(-c3ccc(CNS(=O)(=O)NC(=O)OC(C)(C)C)cc3)n[nH]c(=O)c2cc1OC [Compound No. 76, tert-butyl (N-(4-(6,7-dimethoxy-4-oxo-3,4-dihydrophthalazin-1-yl)benzyl)sulfamoyl)carbamate]
28 | 1 to 10 µM | COc1cc2c(-c3ccc(CNS(=O)(=O)NC(=O)OC(C)(C)C)cc3)nn(C)c(=O)c2cc1OC [Compound No. 77, tert-butyl (N-(4-(6,7-dimethoxy-3-methyl-4-oxo-3,4-dihydrophthalazin-1-yl)benzyl)sulfamoyl)carbamate]
29 | < 1 µM | Cn1nc(-c2cccc(NS(N)(=O)=O)c2)c2ccccc2c1=O [Compound No. 88, N-(3-(3-methyl-4-oxo-3,4-dihydrophthalazin-1-yl)phenyl)sulfamide hydrochloride]
